ChEMBL document CHEMBL3120118, “Evaluation of 1,2,5-thiadiazoles as modulators of M₁/M₅ muscarinic receptor subtypes” (Bioorg Med Chem, 2014)
The source made the active and inactive calls. No cut-off for these calls is given here.

Key:
[1] = target: T1, Muscarinic acetylcholine receptor M5 (Homo sapiens) (UniProt P08912); experiment: Modulation of human muscarinic M5 receptor expressed in mouse A9 L cells assessed as effect on carbachol-induced phosphoinositide metabolism at 1 to 100 uM after 1 hr by topcount analysis; format: cell-based; settings: A9L
T1 sequence (whole entry): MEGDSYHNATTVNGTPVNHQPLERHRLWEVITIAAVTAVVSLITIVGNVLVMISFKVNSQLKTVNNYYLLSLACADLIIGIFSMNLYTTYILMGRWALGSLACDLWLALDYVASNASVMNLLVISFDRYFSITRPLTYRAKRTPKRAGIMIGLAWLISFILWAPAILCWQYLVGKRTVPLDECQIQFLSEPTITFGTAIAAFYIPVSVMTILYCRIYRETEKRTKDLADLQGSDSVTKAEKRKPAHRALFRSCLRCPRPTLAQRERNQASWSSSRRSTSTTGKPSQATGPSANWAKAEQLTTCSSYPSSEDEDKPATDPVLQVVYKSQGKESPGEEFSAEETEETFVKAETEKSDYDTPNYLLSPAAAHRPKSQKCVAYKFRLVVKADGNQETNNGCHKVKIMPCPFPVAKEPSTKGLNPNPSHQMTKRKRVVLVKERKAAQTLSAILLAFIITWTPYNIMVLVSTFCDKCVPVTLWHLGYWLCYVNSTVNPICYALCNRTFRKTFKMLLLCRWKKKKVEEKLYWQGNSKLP

[2] = target: T2, Muscarinic acetylcholine receptor M1 (Homo sapiens) (UniProt P11229); experiment: Modulation of human muscarinic M1 receptor expressed in mouse A9 L cells assessed as effect on carbachol-induced phosphoinositide metabolism at 1 to 100 uM after 1 hr by topcount analysis; format: cell-based; settings: A9L
T2 sequence (whole entry): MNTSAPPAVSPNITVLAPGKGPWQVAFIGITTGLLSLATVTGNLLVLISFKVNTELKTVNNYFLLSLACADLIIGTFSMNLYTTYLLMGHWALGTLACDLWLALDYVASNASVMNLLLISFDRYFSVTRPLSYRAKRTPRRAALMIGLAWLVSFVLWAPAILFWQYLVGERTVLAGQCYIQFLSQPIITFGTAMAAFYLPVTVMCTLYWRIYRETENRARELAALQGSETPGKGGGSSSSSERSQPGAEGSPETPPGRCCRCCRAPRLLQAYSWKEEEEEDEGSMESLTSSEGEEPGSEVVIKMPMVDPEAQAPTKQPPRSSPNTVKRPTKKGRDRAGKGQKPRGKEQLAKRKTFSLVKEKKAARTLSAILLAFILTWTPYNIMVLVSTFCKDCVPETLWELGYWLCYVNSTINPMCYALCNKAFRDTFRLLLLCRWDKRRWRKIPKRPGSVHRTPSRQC

[3] = target: T2, Muscarinic acetylcholine receptor M1 (Homo sapiens); experiment: Stimulation of human muscarinic M1 receptor expressed in mouse A9 L cells at 1 to 100 uM after 1 hr by topcount analysis; format: cell-based; settings: A9L
[4] = target: T1, Muscarinic acetylcholine receptor M5 (Homo sapiens); experiment: Stimulation of human muscarinic M5 receptor expressed in mouse A9 L cells at 1 to 100 uM after 1 hr by topcount analysis; format: cell-based; settings: A9L
[5] = Solubility of the compound in 50% DMSO; format: physicochemical
[6] = target: T1, Muscarinic acetylcholine receptor M5 (Homo sapiens); experiment: Modulation of human muscarinic M5 receptor expressed in mouse A9 L cells assessed as inhibition of carbachol-induced phosphoinositide metabolism at 100 uM after 1 hr by topcount analysis; format: cell-based; settings: A9L
[7] = target: T2, Muscarinic acetylcholine receptor M1 (Homo sapiens); experiment: Modulation of human muscarinic M1 receptor expressed in mouse A9 L cells assessed as inhibition of carbachol-induced phosphoinositide metabolism at 100 uM after 1 hr by topcount analysis; format: cell-based; settings: A9L
[8] = target: T1, Muscarinic acetylcholine receptor M5 (Homo sapiens); experiment: Modulation of human muscarinic M5 receptor expressed in mouse A9 L cells assessed as competitive inhibition of carbachol-induced phosphoinositide metabolism by Schild plot analysis; format: cell-based; settings: A9L
[9] = target: T2, Muscarinic acetylcholine receptor M1 (Homo sapiens); experiment: Modulation of human muscarinic M1 receptor expressed in mouse A9 L cells assessed as effect on carbachol-induced phosphoinositide metabolism at 10 to 300 uM by Schild plot analysis; format: cell-based; settings: A9L
[10] = target: T2, Muscarinic acetylcholine receptor M1 (Homo sapiens); experiment: Modulation of human muscarinic M1 receptor expressed in mouse A9 L cells assessed as effect on carbachol-induced phosphoinositide metabolism at 1 uM by Schild plot analysis; format: cell-based; settings: A9L
[11] = target: T1, Muscarinic acetylcholine receptor M5 (Homo sapiens); experiment: Modulation of human muscarinic M5 receptor expressed in mouse A9 L cells assessed as inhibition of carbachol-induced phosphoinositide metabolism at 1 to 100 uM after 1 hr by topcount analysis; format: cell-based; settings: A9L

SMILES	Activity [1]	Activity [2]	Activity [3]	Activity [4]	solubility [5]	other results
COc1nsnc1OCCO	inactive	inactive	inactive	inactive	–	–
COc1nsnc1OCCOCCOCCO	inactive	inactive	inactive	inactive	–	–
COc1nsnc1OCCOCCOCCOc1nsnc1OC	–	–	–	–	Insoluble	–
COc1nsnc1OCCOCCOCc1ccccc1	–	–	–	–	Insoluble	–
COc1nsnc1OCC[N+](C)(C)C	–	–	inactive	inactive	–	inhibition [6]: Active; inhibition [7]: Active
COc1nsnc1OCCOCCOCCOCCOc1nsnc1OC	–	–	–	–	Insoluble	–
COc1nsnc1OCCN(C)C	–	inactive	inactive	inactive	–	inhibition [8]: Dose-dependent effect; Activity [9]: Active; Activity [10]: inactive; inhibition [11]: Active
COc1nsnc1OCCOCCOCCOCCO	inactive	inactive	inactive	inactive	–	–
